Laboratory results from paper PMC9676650, “Binding pocket stabilization by high-throughput screening of yeast display libraries” (Frontiers in Molecular Biosciences, 2022).
Substitutions are numbered along the chain they refer to. “And” between values parts separate entries of the source, which are not always exact repeats. Identical values can stand only once.

Experiments:
FKBP51 WT (FK1 domain) = biological target: T1, FKBP51 WT (FK1 domain) (Homo sapiens, UniProt Q13451); assay: Fluorescence polarization tracer binding, FKBP51 WT; conditions: for Fold change in Kd improvement: FKBP51 WT (reference); for Kd: FKBP51 WT, 0.5 nM SAFit-FL, 5 nM Mcyc-TA or 1 nM FK [431]-TA, 30 min room temperature, 3 independent experiments
T1 construct: made in house; host or cells: E. coli BL21 (DE3)
T1 sequence (Q13451 1-140): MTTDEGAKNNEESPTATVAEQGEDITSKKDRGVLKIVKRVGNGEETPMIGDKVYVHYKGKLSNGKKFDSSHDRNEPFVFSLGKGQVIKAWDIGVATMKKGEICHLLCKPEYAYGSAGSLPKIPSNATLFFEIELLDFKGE
Description: (§1) All ligands and tracers used for fluorescence polarization assays had purities of more than 95%. The following ligands and tracers were used for fluorescence polarization and FACS screening experiments: •SAFit-FL tracer (1): Fluorescein conjugated analog of the iFit ligand class. •Mcyc-TA tracer (2): TAMRA conjugated macrocyclic ligand (5). •FK [431]-TA tracer (3): TAMRA conjugated FK [431] ligand (6). •SAFit1 ligand (4): analog of the iFit ligand class. •macrocyclic ligand (5):macrocyclic analog of the SAFit class ligands. •FK [431] ligand (6):bicyclic analog of the immunosuppressive drug FK506
(§2) The binding of the generated FKBP51 variants to different conformation-sensitive FKBP ligands was investigated by fluorescence polarization assays. Therefore, a serial dilution of the respective FKBP51 variant in assay buffer (20 mM HEPES pH 8.0, 150 mM NaCl, 0.015% Triton X-100) was placed in a 384-well assay plate and a defined amount of the respective fluorescent tracer (0.5 nM of the SAFit based tracer SAFit-FL (1), 5 nM of the macrocyclic tracer Mcyc-TA 2) or 1 nM of the FK [431]-TA 3) in assay buffer was added to the protein buffer mixture. After incubation for 30 min at room temperature, the fluorescence polarization was measured with a plate reader. The obtained results for each 3 independent experiments were normalized with respect to the maximal binding signal and fitted to a one-site binding model as described by [Wang et al., 1992] yielding the respective binding constants. tracer bound=100/Lt×0.5×(Rt+Lt+KD−(Rt+Lt+KD)^2−4×LtRt) With L t , total concentration of the tracer, R t , total concentration of the receptor and K D binding constant of the complex RL.

FKBP51 variant N63A = biological target: T2, FKBP51 variant N63A (Homo sapiens, UniProt Q13451, N63A); assay: Fluorescence polarization tracer binding, FKBP51 N63A; conditions: for Fold change in Kd improvement: FKBP51 N63A compared to WT; for Kd: FKBP51 N63A, 0.5 nM SAFit-FL, 5 nM Mcyc-TA or 1 nM FK [431]-TA, 30 min room temperature
T2 construct: made in house; host or cells: E. coli BL21 (DE3)
T2 sequence (Q13451 1-140 N63A): T1 sequence (Q13451 1-140) with N63A
Description: as §1, §2

FKBP51 variant N63G = biological target: T3, FKBP51 variant N63G (Homo sapiens, UniProt Q13451, N63G); assay: Fluorescence polarization tracer binding, FKBP51 N63G; conditions: for Fold change in Kd improvement: FKBP51 N63G compared to WT; for Kd: FKBP51 N63G, 0.5 nM SAFit-FL, 5 nM Mcyc-TA or 1 nM FK [431]-TA, 30 min room temperature
T3 construct: made in house; host or cells: E. coli BL21 (DE3)
T3 sequence (Q13451 1-140 N63G): T1 sequence (Q13451 1-140) with N63G
Description: as §1, §2

FKBP51 variant G64A = biological target: T4, FKBP51 variant G64A (Homo sapiens, UniProt Q13451, G64A); assay: Fluorescence polarization tracer binding, FKBP51 G64A; conditions: for Fold change in Kd improvement: FKBP51 G64A compared to WT; for Kd: FKBP51 G64A, 0.5 nM SAFit-FL, 5 nM Mcyc-TA or 1 nM FK [431]-TA, 30 min room temperature
T4 construct: made in house; host or cells: E. coli BL21 (DE3)
T4 sequence (Q13451 1-140 G64A): T1 sequence (Q13451 1-140) with G64A
Description: as §1, §2

FKBP51 variant G64S = biological target: T5, FKBP51 variant G64S (Homo sapiens, UniProt Q13451, G64S); assay: Fluorescence polarization tracer binding, FKBP51 G64S; conditions: for Kd: FKBP51 G64S, 0.5 nM SAFit-FL, 5 nM Mcyc-TA or 1 nM FK [431]-TA, 30 min room temperature
T5 construct: made in house; host or cells: E. coli BL21 (DE3)
T5 sequence (Q13451 1-140 G64S): T1 sequence (Q13451 1-140) with G64S
Description: as §1, §2

FKBP51 variant G64T = biological target: T6, FKBP51 variant G64T (Homo sapiens, UniProt Q13451, G64T); assay: Fluorescence polarization tracer binding, FKBP51 G64T; conditions: for Fold change in Kd improvement: FKBP51 G64T compared to WT; for Kd: FKBP51 G64T, 0.5 nM SAFit-FL, 5 nM Mcyc-TA or 1 nM FK [431]-TA, 30 min room temperature
T6 construct: made in house; host or cells: E. coli BL21 (DE3)
T6 sequence (Q13451 1-140 G64T): T1 sequence (Q13451 1-140) with G64T
Description: as §1, §2

FKBP51 variant D68N = biological target: T7, FKBP51 variant D68N (Homo sapiens, UniProt Q13451, D68N); assay: Fluorescence polarization tracer binding, FKBP51 D68N; conditions: for Fold change in Kd improvement: FKBP51 D68N compared to WT; for Kd: FKBP51 D68N, 0.5 nM SAFit-FL, 5 nM Mcyc-TA or 1 nM FK [431]-TA, 30 min room temperature
T7 construct: made in house; host or cells: E. coli BL21 (DE3)
T7 sequence (Q13451 1-140 D68N): T1 sequence (Q13451 1-140) with D68N
Description: as §1, §2

FKBP51 variant D68Y = biological target: T8, FKBP51 variant D68Y (Homo sapiens, UniProt Q13451, D68Y); assay: Fluorescence polarization tracer binding, FKBP51 D68Y; conditions: for Fold change in Kd improvement: FKBP51 D68Y compared to WT; for Kd: FKBP51 D68Y, 0.5 nM SAFit-FL, 5 nM Mcyc-TA or 1 nM FK [431]-TA, 30 min room temperature
T8 construct: made in house; host or cells: E. coli BL21 (DE3)
T8 sequence (Q13451 1-140 D68Y): T1 sequence (Q13451 1-140) with D68Y
Description: as §1, §2

Fold change in Kd improvement (FKBP51 variant G64S; FKBP51 G64S compared to WT) | Compound | Fold change in Kd improvement (FKBP51 WT (FK1 domain)) | Kd (FKBP51 WT (FK1 domain)) | Fold change in Kd improvement (FKBP51 variant N63A) | Kd (FKBP51 variant N63A) | Fold change in Kd improvement (FKBP51 variant N63G) | Kd (FKBP51 variant N63G) | Fold change in Kd improvement (FKBP51 variant G64A) | Kd (FKBP51 variant G64A) | Kd (FKBP51 variant G64S) | Fold change in Kd improvement (FKBP51 variant G64T) | Kd (FKBP51 variant G64T) | Fold change in Kd improvement (FKBP51 variant D68N) | Kd (FKBP51 variant D68N) | Fold change in Kd improvement (FKBP51 variant D68Y) | Fold change in Kd improvement (FKBP51 variant D68Y; listed as 3) | Kd (FKBP51 variant D68Y)
 | CN(C)c1ccc2c(-c3cc(C(=O)NCCn4cc([C@H]5CN(Cc6ccccn6)C(=O)[C@@H]6CCC[C@H]5N6S(=O)(=O)c5cc(Cl)cc(Cl)c5)nn4)ccc3C(=O)O)c3ccc(=[N+](C)C)cc-3oc2c1 [FK [431]-TA] | 1 fold | 5.1 ± 0.1 nM | 0.850 fold | 6 ± 0.2 nM | 0.850 fold | 6 ± 0.2 nM | 0.084 fold | 61 ± 2 nM | 11 ± 1 nM | 0.084 fold | 61 ± 2 nM | 0.035 fold | 146 ± 6 nM | 0.134 fold | no improvement | 38 ± 2 nM
34 fold and 34.29 fold | COc1ccc(CC[C@H]2OC(=O)[C@@H]3CCCCN3C(=O)[C@@H](C3CCCCC3)NC(=O)C(C)(C)NC(=O)COc3cc(OCCNC(=O)c4ccc(C(=O)O)c(-c5c6ccc(=[N+](C)C)cc-6oc6cc(N(C)C)ccc56)c4)cc2c3)cc1OC [Mcyc-TA] | 1.00 fold | 24 ± 2 nM | 5.58 fold | 4.3 ± 0.5 nM | 3.16 fold | 7.6 ± 0.9 nM | 5.71 fold | 4.2 ± 0.5 nM | 0.7 ± 0.2 nM | 1.41 fold | 17 ± 1 nM | 4.00 fold | 6 ± 1 nM | 34 fold and 34.29 fold |  | 0.7 ± 0.1 nM
